# Measured values from US20090028795A1, “NOD1 as an Anti-Tumor Agent” (priority 2005, published 2009).
# Non-standard residues stand in square brackets, D forms with d. No end group written: not given here. DAP = diaminopimelic acid
# Legend:
# Assay type in all cases: cell-based, human
# MCF-7 C20 cells = experiment: Propidium iodide exclusion cell death assay, Nod1-deficient MCF-7 C20 cells; conditions: MCF-7C20 (without Nod1 expression), γTriDAP plus cycloheximide
# Procedure: (§1) Cell viability assays. Propidium iodide exclusion assay: Cells were stimulated as indicated for 2 days. Subsequently, cells were harvested, washed twice in FACS buffer (PBS containing 1% FCS and 0.1% NaN3) and resuspended in propidium iodide (PI)-containing FACS buffer (4 ug/ml). The extent of cell death was analyzed with a FACSCalibur flow cytometer (Becton Dickinson, Mountain View, Calif.). DAPI staining: MCF-7 cells were plated in chamber slides, and stimulated for 2 days. Cells were washed with PBS and apoptotic nuclei were stained with 1 μg/ml DAPI (Sigma Chemical Co., St. Louis, Mo.). Cells were fixed in 4% paraformaldehyde and examined by fluorescence microscopy.
# To further investigate the role of Nod1 in apoptosis, a variety of cell types were incubated with the Nod1 ligand, […] (γTriDAP), which specifically activates Nod1. The cell types tested included the parental MCF-7 cell line, the Nod1-deficient MCF-7C20 clone, and a cell line engineered to contain an additional human Nod1 allele (MCF-7Nod1) so that Nod1 was over-expressed. […] Cells were treated with γTriDAP in the presence or absence of cycloheximide (CHX) and cell death was then determined by propidium iodide staining and flow cytometry.
# MCF-7 C20/Nod1 cells = experiment: Propidium iodide exclusion apoptosis assay, estrogen/tamoxifen studies; conditions: γTriDAP-induced, C20/Nod1 cells
# Text: FIG. 12A-C illustrates that estrogen increases γTriDAP-induced apoptosis and tamoxifen inhibits γTriDAP-induced apoptosis in various MCF-7 tumor cell lines. FIG. 12A graphically illustrates the percent apoptosis in MCF-7 Blasto, MCF-7 C20 and MCF-7 C20/Nod1 cells cultured in increasing amounts or estrogen and either cycloheximide (CHX) or CHX plus γTriDAP (γTri). FIG. 12B graphically illustrates the percent apoptosis in MCF-7 Blasto, MCF-7 C20 and MCF-7 C20/Nod1 cells cultured in increasing amounts of tamoxifen and either cycloheximide (CHX) or CHX plus γTriDAP (γTri). For the estrogen studies, MCF-7 cells were cultured in charcoal-treated medium and stimulated with γTriDAP/CHX in the presence of increasing concentrations of estrogen (E2) and cell viability was measured by propidium iodide (PI) exclusion. For the tamoxifen studies, cells were treated with tamoxifen prior to addition of γTriDAP/CHX and cell viability measured by PI exclusion. […] Total protein extracts from MCF-7 Blasto, MCF-7 C20 and MCF-7 C20/Nod1 cells and from cells isolated from tumors were analyzed by immunoblotting using antibody against estrogen receptor (ERα), and ERK2 as loading control.
# as §1
# To determine whether the presence of estrogens modulates Nod1-induced apoptotic pathway, cells were cultured in medium containing charcoal-treated serum.
# HT29 = experiment: Apoptosis (PI staining), HT29 cells stably expressing Nod1; conditions: HT29, Nod1 stably expressed; treatment as labelled
# Procedure: as §1
# (§2) To determine if Nod1-dependent apoptosis occurs in other human cell lines, a series of epithelial cell lines were examined where Nod1 was stably expressed to enhance sensitivity to activation of the Nod1 pathway. Cells were treated with TNFα (T) and γTriDAP (γ) in the presence or absence of CHX (C) and monitored for viability by PI staining as a measure of apoptosis (Table 1).
# MCF-7 Nod2 cells = experiment: Apoptosis (PI, flow cytometry) in MCF-7 cells over-expressing Nod2; conditions: 20 ug/ml plus CHX, 48 h
# Procedure: In FIG. 5A, MCF-7 Blasto, MCF-7 Nod1 and MCF-7 Nod2 were treated with the NOD1 ligand γTriDAP or the Nod2 ligand muramyl dipeptide (MDP)(20 ug/ml each) in the presence or absence of CHX for 48 h. Cells were then incubated with PI and apoptotic cell death was measured by flow cytometry. […] In FIG. 5B, expression of NOD1 and NOD2 was confirmed by Western blot analysis using anti-Myc antibodies for detection of the recombinant proteins. […] MCF-7 Blasto, MCF-7 Nod1 and MCF-7 Nod2 cells were stimulated with γTriDAP or MDP in the presence or absence of CHX (0.5 ug/ml) for 24 h. Cell supernatants were then harvested and assayed for IL-8 secretion.
# Cell viability assays. Propidium iodide exclusion assay: Cells were stimulated as indicated for 2 days. […] The extent of cell death was analyzed with a FACSCalibur flow cytometer (Becton Dickinson, Mountain View, Calif.). […] Cells were fixed in 4% paraformaldehyde and examined by fluorescence microscopy.
# Experiments were also performed to ascertain whether activation of Nod2 by its specific activator, muramyl dipeptide (MDP), would initiate apoptosis in parental MCF-7 cells or in MCF-7 cells over-expressing Nod2 (MCF-7 Nod2). Thus, γTriDAP or MDP were added to each of these lines and apoptosis (FIG. 5A) and IL-8 production (FIG. 5C) were measured. […]
# MCF-7 cells = experiment: Apoptosis in the presence of TNFα (FIG. 8C); conditions: with TNFα
# Procedure: FIG. 8A-D illustrate that a synergistic relationship exists between NOD1 and TNFα. FIG. 8A graphically illustrates that the percentage of apoptotic cells increases in dose-specific manner as the concentration of NOD1 increases from 0.0 to 100 μg/ml and the concentration of TNFα increases from 0.5 ng/ml to 1 ng/ml. FIG. 8B graphically illustrates that the percentage of apoptotic cells increases in dose-specific manner as the concentration of cycloheximide increases from 0.0 to 3 μg/ml and the concentration of TNFα increases from 0.5 ng/ml to 1 ng/ml. […] FIG. 8D illustrates NOD1 expression at various time points after exposure of MCF-7 cells to TNFα.
# 293 [1] = experiment: IL-8 production, 293 cells stably expressing Nod1; conditions: 293, Nod1 stably expressed; treatment as labelled
# SK-BR3 = experiment: Apoptosis (PI staining), SK-BR3 cells
# Procedure: as §1, §2
# 293 [2] = experiment: Apoptosis (PI staining), 293 cells stably expressing Nod1; conditions: 293, Nod1 stably expressed; treatment as labelled
# Procedure: as §1, §2
# A431 = experiment: Apoptosis (PI staining), A431 cells stably expressing Nod1; conditions: A431, Nod1 stably expressed; treatment as labelled
# Procedure: as §1, §2
# CaCo2 [3] = experiment: IL-8 production, CaCo2 cells stably expressing Nod1; conditions: CaCo2, Nod1 stably expressed; treatment as labelled
# CaCo2 [4] = experiment: Apoptosis (PI staining), CaCo2 cells stably expressing Nod1; conditions: CaCo2, Nod1 stably expressed; treatment as labelled
# Procedure: as §1, §2
substance,measurement,setting,value
D-Ala-L-Glu-Diaminopimelic acid ([dA]-Glu-[DAP]; also: Glu joined to DAP through its gamma carboxyl (γTriDAP)),apoptosis,MCF-7 C20 cells,totally resistant
same,apoptosis,MCF-7 C20/Nod1 cells; with steroids,80%
same,apoptosis,MCF-7 C20/Nod1 cells; without steroids (charcoal-treated serum),10%
same,apoptosis,HT29,poorly responsive
same,apoptosis,MCF-7 Nod2 cells,produced cell death
same,apoptosis in the presence of TNFα,MCF-7 cells,increases apoptosis
same,IL−8 Production,293 [1],do release IL-8
same,apoptosis,"SK-BR3; SK-BR3, Nod1 stably expressed, treatment as labelled",only undergo apoptosis when γTriDAP was added together with TNFα and CHX
same,apoptosis of SKBR3 cells,SK-BR3; plus TNFα and cycloheximide (FIG. 9B),highest
same,apoptosis,293 [2],resistant
same,apoptosis,A431,only undergo apoptosis when γTriDAP was added together with TNFα and CHX
same,IL−8 Production,CaCo2 [3],poorly responsive
same,apoptosis,CaCo2 [4],poorly responsive
